In PubChem BioAssay AID2060336 (Molecular Pharmacology Branch, DTP, NCI, 2025):
“And” between values parts separate entries of the source, which are not always exact repeats. Equal values may be shown once.

System: 958767-090-R-J1-PDC spheroid growth
Test: Anticancer human tumor 958767-090-R-J1-PDC patient-derived head and neck squamous carcinoma cell line growth inhibition [IpAb]
Conditions: spheroids with HUVEC and MSC; for viability, T/C: stronger effect = lower value
Summary of the method: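 Combinations with ipatasertib or abemaciclib were tested on tumour spheroids holding HUVEC (25%) and MSC (15%) alongside 60% malignant cells. Top concentration was at or near clinical Cmax (10 microM if undefined), descending in half-log steps.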

[1] = curve of first compound, second compound 0.1 µM
[2] = curve of first compound, second compound 0.316 µM
[3] = curve of first compound, second compound 1 µM
[4] = second compound 0.1 µM, first compound 0.0316 µM
[5] = second compound 0.1 µM, first compound 0.1 µM
[6] = second compound 0.1 µM, first compound 0.316 µM
[7] = second compound 0.1 µM, first compound 1 µM
[8] = second compound 0.1 µM, first compound 3.16 µM
[9] = second compound 0.1 µM, first compound 10 µM
[10] = second compound 0.316 µM, first compound 0.0316 µM
[11] = second compound 0.316 µM, first compound 0.1 µM
[12] = second compound 0.316 µM, first compound 0.316 µM
[13] = second compound 0.316 µM, first compound 1 µM
[14] = second compound 0.316 µM, first compound 3.16 µM
[15] = second compound 0.316 µM, first compound 10 µM
[16] = second compound 1 µM, first compound 0.0316 µM
[17] = second compound 1 µM, first compound 0.1 µM
[18] = second compound 1 µM, first compound 0.316 µM
[19] = second compound 1 µM, first compound 1 µM
[20] = second compound 1 µM, first compound 3.16 µM
[21] = second compound 1 µM, first compound 10 µM
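Also: spheroids exposed to agents for 7 days.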
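For viability, T/C in this document: 100% = DMSO vehicle control wells.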

SMILES | IC50 [1] [µM] | IC50 [2] [µM] | IC50 [3] [µM] | viability, T/C [4] [%] | viability, T/C [5] [%] | viability, T/C [6] [%] | viability, T/C [7] [%] | viability, T/C [8] [%] | viability, T/C [9] [%] | viability, T/C [10] [%] | viability, T/C [11] [%] | viability, T/C [12] [%] | viability, T/C [13] [%] | viability, T/C [14] [%] | viability, T/C [15] [%] | viability, T/C [16] [%] | viability, T/C [17] [%] | viability, T/C [18] [%] | viability, T/C [19] [%] | viability, T/C [20] [%] | other results
CC1(C)CCC(CN2CCN(c3ccc(C(=O)NS(=O)(=O)c4ccc(NCC5CCOCC5)c([N+](=O)[O-])c4)c(Oc4cnc5[nH]ccc5c4)c3)CC2)=C(c2ccc(Cl)cc2)C1 + CC(C)NCC(C(=O)N1CCN(c2ncnc3c2C(C)CC3O)CC1)c1ccc(Cl)cc1 | 5.1 | 3.39 | < 0.0316 | 78.3 | 66.5 | 62.5 | 87.9 | 103 | 8.08 | 60.8 | 54.9 | 44.4 | 44.4 | 60.4 | 4.07 | 45.1 | 47.5 | 40.8 | 36 | 38.2 | IC50 (curve of first compound, second compound 3.16 µM): < 0.0316 µM; IC50 (curve of first compound, second compound 10 µM): < 0.0316 µM; viability, T/C [21]: 2.04%; viability, T/C (second compound 3.16 µM, first compound 0.0316 µM): 37.2%; viability, T/C (second compound 3.16 µM, first compound 0.1 µM): 35.3%; viability, T/C (second compound 3.16 µM, first compound 0.316 µM): 35.6%; viability, T/C (second compound 3.16 µM, first compound 1 µM): 29.3%; viability, T/C (second compound 3.16 µM, first compound 3.16 µM): 37.1%; viability, T/C (second compound 3.16 µM, first compound 10 µM): 2.03%; viability, T/C (second compound 10 µM, first compound 0.0316 µM): 34.3%; viability, T/C (second compound 10 µM, first compound 0.1 µM): 27%; viability, T/C (second compound 10 µM, first compound 0.316 µM): 24.2%; viability, T/C (second compound 10 µM, first compound 1 µM): 28.8%; viability, T/C (second compound 10 µM, first compound 3.16 µM): 30.7%; viability, T/C (second compound 10 µM, first compound 10 µM): 0.98%
CC1(C)CCC(CN2CCN(c3ccc(C(=O)NS(=O)(=O)c4ccc(NCC5CCOCC5)c([N+](=O)[O-])c4)c(Oc4cnc5[nH]ccc5c4)c3)CC2)=C(c2ccc(Cl)cc2)C1 + CCN1CCN(Cc2ccc(Nc3ncc(F)c(-c4cc(F)c5nc(C)n(C(C)C)c5c4)n3)nc2)CC1 | 4.09 | 3.89 | 4.05 | 63.5 | 60.7 | 66.6 | 50.3 | 70 | 7.55 | 57 | 50.6 | 57.2 | 57.2 | 79.2 | 3.5 | 61.2 | 61.3 | 59.8 | 59.6 | 70.9 | IC50 (curve of first compound, second compound 0.01 µM): 5.78 µM; IC50 (curve of first compound, second compound 0.0316 µM): 4.93 µM; viability, T/C (second compound 0.01 µM, first compound 0.0316 µM): 88.7%; viability, T/C (second compound 0.01 µM, first compound 0.1 µM): 90.8%; viability, T/C (second compound 0.01 µM, first compound 0.316 µM): 71.5%; viability, T/C (second compound 0.01 µM, first compound 1 µM): 95.8%; viability, T/C (second compound 0.01 µM, first compound 3.16 µM): 121%; viability, T/C (second compound 0.01 µM, first compound 10 µM): 10.4%; viability, T/C (second compound 0.0316 µM, first compound 0.0316 µM): 75.5%; viability, T/C (second compound 0.0316 µM, first compound 0.1 µM): 83.4%; viability, T/C (second compound 0.0316 µM, first compound 0.316 µM): 59.4%; viability, T/C (second compound 0.0316 µM, first compound 1 µM): 70.9%; viability, T/C (second compound 0.0316 µM, first compound 3.16 µM): 102%; viability, T/C (second compound 0.0316 µM, first compound 10 µM): 5.08%; viability, T/C [21]: 4.55%
COc1c(OCCCN2CCOCC2)ccc2c3n(c(=NC(=O)c4cnc(N)nc4)nc12)CCN3 |  |  |  |  |  |  |  |  |  |  |  |  |  |  |  |  |  |  |  |  | viability, T/C (compound 0.00316 µM): 64.4% and 71.9%; viability, T/C (compound 0.01 µM): 50% and 60.7%; viability, T/C (compound 0.0316 µM): 34.6% and 39.4%; viability, T/C (compound 0.1 µM): 15.9% and 25.2%; viability, T/C (compound 0.316 µM): 8.95% and 9.82%; viability, T/C (compound 1 µM): 4.88% and 4.05%; IC50 (curve of compound): 0.0107 µM and 0.0182 µM
